Test results taken from patent US5075318A, “8α-acylaminoergoline, its preparation and pharmaceutical compositions containing it” (Sandoz Ltd., priority 1987, dated 1991).
Where two headings read alike, the source gives them in different places.

Tests used:
[1] = tested on: apomorphine induced gnawing; assay: Inhibition of apomorphine induced gnawing in the rat; format: in vivo, rat (Sprague-Dawley); conditions: po, apomorphine hydrochloride 2.0 mg/kg i.v., read-out: threshold dose (100% inhibition of apomorphine induced gnawing)
Experimental: The compound of formula I inhibits apomorphine induced gnawing in the rat in a method based on that of P.A. Janssen et al., Arzneim.-Forsch. (Drug Res.) 10, 1003-1005 (1960):
Groups of 3-6 rats (males and females, 90-160 g, Sprague-Dawley, Suddeutsche Tierfarm, Tuttlingen, West Germany) are treated with the test-drug orally and after a pre-determined time further treated with 2.0 mg/kg i.v. apomorphine hydrochloride in aq. solution. They are then placed in individual cages lined with corrugated paper. At times 10, 20 and 30 minutes after the apomorphine each rat is observed for 1 minute. If gnawing occurred during an observation period, that observation is scored as positive. Thus, three scores are obtained from each rat. The supra-maximal dose of apomorphine invariably produces gnawing in all controls at all observation times. Out of the total number of observations per treatment group, the number of positives is noted. The dose of drug which causes a 100% inhibition of the apomorphine induced gnawing is taken as the threshold dose. After a pretreatment time of 3 hours the threshold dose for the compound of formula I is 0.2 mg/kg p.o., after a pretreatment time of 6 hours also 0.2 mg/kg p.o.

D-1 receptor sites = molecular target: T1, D-1 receptor sites (Bos taurus, UniProt Q95136); assay: D-1 receptor binding, displacement of 3H-SCH 23390 in calf striatal membranes
T1 construct: Fresh calf brain striatal tissue is homogenized; from tissue; host or cells: calf brain striatum, membrane homogenate
Experimental: (§1) Furthermore the compound of formula I binds to dopamine receptors as characterised by the displacement of ^3 H-ligands from their respective binding sites in the homogenates of brain tissue.
The affinity to D-1 receptor sites [cf. W. Billard et al., Life Sci. 35, 1885-1893 (1984)] using ^3 H-(R)-(+)-8-chloro-7-hydroxy-3-methyl-5-phenyl-2,3,4,5-tetrahydro-1H-3-benzazepine (^3 H-SCH 23390) as ligand is determined as follows:
(§2) Fresh calf brain striatal tissue is homogenized in a 20 fold volume of Tris-HCl buffer (50 mM, pH 7.4 at 25° C.) using a Polytron tissue homogenizer. The homogenate is centrifuged for 10 minutes at 50,000 g (4° C.) and the supernatant discarded. The pellets are resuspended in the same buffer as before. The suspension is incubated for 20 minutes at 37° C. and then recentrifuged as before. The resulting pellets are stored frozen at -20° until their use in the binding assay. For the binding assay the pellets are resuspended in Tris-HCl buffer (50 mM, pH 7.4 at 37° C., containing 120 mM NaCl) in such a way that the final volume of 2 ml contains membranes corresponding to approximately 5 mg original tissue weight. ^3 H-SCH 23390 is added to give a final concentration of 0.1 nM. The assays for the determination of nonspecific binding additionally contain 1 μM unlabelled SCH 23390. […] The filters are monitored for radioactivity through liquid scintillation counting. […]

catalepsy = assay: Cataleptogenic activity in rats; format: in vivo, rat (Sprague-Dawley); conditions: p.o.
Experimental: (§3) (Drug Res.) 21, 252-255 (1971). In this test groups of 4-8 rats (120-170 g, Sprague-Dawley, females and males, Suddeutsche Tierfarm, Tuttlingen, West Germany) receive the test substance orally. At specified times after treatment the catalepsy of each rat is estimated by placing the forepaws on a 7 cm high block. The time for which the animal remains in this unnatural position is measured up to a maximum of 45 seconds. The threshold dose is the final dose, which still causes a catalepsy-median of >10 seconds. The compound of formula I has a threshold dose of 5 mg/kg p.o. determined during an 8 hour measurement period. This is a dose which is at least 25 times higher than that required to antagonize apomorphine induced gnawing.

[2] = Cataleptogenic activity in rats; format: in vivo, rat (Sprague-Dawley); conditions: rat, in vivo, po, read-out: ratio of catalepsy threshold dose to dose required to antagonize apomorphine induced gnawing
Experimental: as §3

D-2 receptor sites = molecular target: T2, D-2 receptor sites (Bos taurus, UniProt P20288); assay: D-2 receptor binding, 3H-spiperone binding assay in calf striatal membranes
T2 construct: Calf striatal membranes are prepared as described above; from tissue; host or cells: calf brain striatum, membrane homogenate
Experimental: as §1
as §2, with “23390. The test compound is added to give 5 to 9 different concentrations.” for “23390.”
The high affinity of the compound for D-2 receptor sites may be determined in the ^3 H-spiperone binding assay [cf. […]

Tolerability in mice = conditions: mouse, in vivo, po, well tolerated up to, read-out: well tolerated dose
Experimental: (§4) The compound of formula I is well tolerated in mice up to 100 mg/kg p.o. The non-toxic dose level in the dog after a 4 week treatment is 3 mg/kg/day p.o.

[3] = Non-toxic dose level in the dog after 4 week treatment; conditions: in vivo, po, after a 4 week treatment
Experimental: as §4

serum prolactin levels [4] = tested on: serum prolactin levels; parameters: species or system rat (male Sprague-Dawley); conditions: rat, in vivo
Experimental: The test is performed as follows:
Male rats (120-140 g, Sprague-Dawley, Suddeutsche Tierfarm, Tuttlingen, West Germany) are maintained on a 12:12 light dark cycle (lights on 06.00, off 18.00 hrs). On the evening before the experiment, animals are marked for identification purposes and caged in groups of 4 into makrolon (type 3) cages. The next morning, the rats in each group receive 10 mg/kg p.o. of the test drug or placebo (normal saline solution+2 drops HCl) 2, 4, 8, 16 or 24 hours before they are killed by decapitation. Blood samples are collected in plastic tubes, centrifuged to obtain the serum, which is then stored at -20° C. until assayed for prolactin. Prolactin in the serum is measured by radioimmunoassay according to that of A. Hausler et al., J. Ultrastruct. Res. 64, 74 (1978).

[5] = tested on: rats with an unilateral 6-OHDA (6-hydroxydopamine) induced lesion of the substantia nigra; assay: Rotational behaviour in rats with unilateral 6-OHDA induced lesion of the substantia nigra (Ungerstedt rat); format: in vivo
Text: For instance, the compound of formula I induces in rats with an unilateral 6-OHDA (6-hydroxydopamine) induced lesion of the substantia nigra [i.e. Ungerstedt rat, c.f.

serum prolactin levels [6] = assay: Serum prolactin levels in male rats after subcutaneous administration (radioimmunoassay); format: in vivo, rat (male OFA); conditions: s.c., only at high doses
Experimental: E. Fluckiger et al., Experientia 34, 1330-1331 (1978)]:
Male OFA-rats of about 250 g body weight are brought to the experimental room 24 hours before the actual experiment. They are kept in appropriate cages by tens. After the experimental treatment they are kept singly. Food and water are freely available. Various doses of the compound or the vehicle are administered s.c. to groups of 5 animals. In this standard experiment the animals are decapitated 4 hours after treatment. The sera of the individual animals are deep frozen until assayed. Prolactin is then measured in aliquots by radioimmunoassay. The serum prolactin levels are expressed in ng/ml in terms of the prolactin standard NIAMD-RPrl-RP1.

T1 sequence (Q95136 whole entry): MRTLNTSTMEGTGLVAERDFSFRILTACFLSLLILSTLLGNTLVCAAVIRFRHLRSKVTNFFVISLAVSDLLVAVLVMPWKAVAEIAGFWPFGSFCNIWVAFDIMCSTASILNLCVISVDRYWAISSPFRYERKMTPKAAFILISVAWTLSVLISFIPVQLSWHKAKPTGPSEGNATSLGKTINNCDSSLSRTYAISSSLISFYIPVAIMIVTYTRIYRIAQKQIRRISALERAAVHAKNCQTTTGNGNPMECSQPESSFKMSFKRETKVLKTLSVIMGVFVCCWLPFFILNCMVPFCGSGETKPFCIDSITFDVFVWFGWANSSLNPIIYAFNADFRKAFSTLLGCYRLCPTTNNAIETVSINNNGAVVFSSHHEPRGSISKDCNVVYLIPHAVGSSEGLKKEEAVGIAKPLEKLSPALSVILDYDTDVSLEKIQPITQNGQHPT
T2 sequence (P20288 whole entry): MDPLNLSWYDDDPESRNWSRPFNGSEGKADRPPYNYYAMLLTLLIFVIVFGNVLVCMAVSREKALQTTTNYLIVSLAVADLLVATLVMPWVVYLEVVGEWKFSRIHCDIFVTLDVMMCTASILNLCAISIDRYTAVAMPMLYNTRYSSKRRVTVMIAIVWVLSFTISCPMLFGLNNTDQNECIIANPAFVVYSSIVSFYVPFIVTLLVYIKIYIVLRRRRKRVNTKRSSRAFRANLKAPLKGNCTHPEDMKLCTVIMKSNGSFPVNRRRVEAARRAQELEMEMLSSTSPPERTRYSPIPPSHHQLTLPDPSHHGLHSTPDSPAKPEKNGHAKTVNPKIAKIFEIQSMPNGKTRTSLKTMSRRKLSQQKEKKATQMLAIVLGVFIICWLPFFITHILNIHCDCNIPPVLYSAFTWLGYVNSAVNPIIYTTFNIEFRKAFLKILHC

Row | Structure (SMILES) | ED100 ([1]; pretreatment time 6 hours) | IC50 (D-1 receptor sites) | cataleptogenic activity (in words) (catalepsy) | threshold dose (catalepsy-median of >10 seconds) (catalepsy; 8 hour measurement period) | selectivity ratio [2] | IC50 (D-2 receptor sites) | MTD (Tolerability in mice) | NOAEL at 672 h [3] | ED100 ([1]; pretreatment time 3 hours) | effect on prolactin levels, oral administration (overall) (serum prolactin levels [4]) | effect on serum prolactin levels (serum prolactin levels [4]; po, 10 mg/kg) | rotations contralateral to the lesion ([5]; 0.5 mg/kg p.o., within 7 hours) | rotational behaviour (in words) ([5]; rats, relatively low doses, p.o.) | dose that influences serum prolactin levels (serum prolactin levels [6])
1 | O=C(CCCN1CCC(O)(c2ccc(Cl)cc2)CC1)c1ccc(F)cc1 [haloperidol, reference compound] | 0.2 mg/kg | – | – | – | – | – | – | – | – | – | – | – | – | –
2 | CCC(C)(CC)C(=O)N[C@H]1C[C@@H]2c3cccc4[nH]c(C)c(c34)C[C@H]2N(C)C1 [compound of formula I, N-[(5R,8S,10R)-2,6-dimethyl-ergoline-8-yl]-2-ethyl-2-methyl-butanamide] | 0.2 mg/kg | ~50 nM | only a weak cataleptogenic activity | 5 mg/kg p.o. | ≥ 25 | ~20 nM | ≥ 100 mg/kg | 3 mg/kg/day | 0.2 mg/kg | only weak effects on prolactin levels | declines (24 hours) towards normal | 950 rotations | long lasting rotational behaviour contralateral to the lesion | ≥ 10 mg/kg
